Reference: US20120276015A1, “Optical in vivo Imaging Contrast Agents and Methods of Use” (priority 2005, published 2012)

System: sites of inflammation
Assay: In vivo imaging of collagen-induced arthritis (CIA) mice, qualitative analysis of targeting
Parameters: species or system Balb/c mice
Details: inflamed paw
Protocol: Inflammation was modeled by inducing polyarticular collagen-induced arthritis (CIA) in 4-6 week old female Balb/c mice (Charles River). Antibody mediated CIA was induced by intravenous (IV; tail vein) injection of 2 mg Arthrogen-CIA Monoclonal Antibody Blend (Chemicon). Three days after antibody treatment, each mouse received 50 μg Lipopolysaccharide (LPS; Chemicon) intraperitoneally (IP). Seven days after the initial injection, the mice had recovered from the LPS toxicity and symptoms of arthritis were observed. Mice were monitored daily and scored for paw and joint swelling based on the following scale: • 0: Normal • 1: Mild but definite swelling of ankle or wrist or swelling limited to individual digits • 2: Moderate redness and swelling of ankle and wrist • 3: Severe redness and swelling of the entire paw including digits (none of the study mice reached this stage)
Mice were injected with the present contrast agent when they reached level 2, between five and ten days after the LPS injection.
Contrast agents were introduced systemically by IV injection. A 29-guage needle was used to inject 100 μl of 1% solids in water (without buffer salts or saline) containing 2% Pluronic F-127 via the lateral tail vein. The tail was stroked lengthwise three times with an alcohol saturated pad to dilate the blood vessels prior to injection. […]

Q: For “BSA conjugate: BSA conjugate used as comparison contrast agent; labeled the whole paw”, which “image resolution of labeling” value is on record?
A: The value was “labeled the whole paw”.
